Results as given in ChEMBL document CHEMBL1130805, “The synthesis and evaluation of benzannelated-azatoxins: the benzazatoxins” (Bioorg Med Chem Lett, 1998).
Calls of active or inactive are those of the source. The rule behind the calls is not given here.

Tests used:
[1] = biological target: T1, DNA topoisomerase II (Homo sapiens) (UniProt P11388+Q02880); assay: Compound was evaluated for its ability to affect topoisomerase II inhibition; inactive; assay type: protein assay
[2] = organism: Bos taurus; assay: Compound was evaluated for inhibition of tubulin polymerization in bovine brain tubulin; assay type: functional
[3] = system: MCF7; assay: Compound was evaluated for growth inhibition against MCF-7 cells using cellular assay; assay type: functional; details: Homo sapiens
[4] = system: PC-3; assay: Compound was evaluated for growth inhibition against PC-3 cells using cellular assay; assay type: functional; details: Homo sapiens
[5] = system: NCI-H520; assay: Compound was evaluated for growth inhibition against NCI-H520 cells using cellular assay; assay type: functional; details: Homo sapiens
[6] = biological target: T1, DNA topoisomerase II (Homo sapiens); assay: Compound was evaluated for its ability to affect topoisomerase II inhibition; active; assay type: protein assay

Row | SMILES | Activity [1] | IC50 [2] [µM] | GI50 [3] [µM] | GI50 [4] [µM] | GI50 [5] [µM] | Activity [6]
1 | COc1cc([C@@H]2c3[nH]c4ccc5ccccc5c4c3C[C@H]3COC(=O)N32)cc(OC)c1O | inactive | 5.6 | 2 | 2 | 0.8 | 
2 | COc1cc([C@@H]2c3[nH]c4ccccc4c3C[C@H]3COC(=O)N32)cc(OC)c1O |  | 20.3 | 0.25 | 0.2 | 0.12 | Active
3 | COc1cc([C@@H]2c3[nH]c4cc5ccccc5cc4c3C[C@H]3COC(=O)N32)cc(OC)c1O | inactive | 6.7 | 5 | 10 | 4 | 
4 | COc1cc2c(c(OC)c1OC)-c1ccc(OC)c(=O)cc1[C@@H](NC(C)=O)CC2 [COLCHICINE] | inactive | 11.8 | < 0.05 | < 0.05 | < 0.05 | 
5 | COc1cc([C@@H]2c3[nH]c4c(ccc5ccccc54)c3C[C@H]3COC(=O)N32)cc(OC)c1O | inactive | 51 | > 50 | > 50 | > 50 | 
